How the values were obtained:
Format in all cases: functional
SF-268 = test: Growth inhibition of Homo sapiens (human) SF268 cells at 10 uM after 48 hr by coulter counter analysis; details: SF-268, 48 h, read-out: GI
UACC-62 = test: Growth inhibition of Homo sapiens (human) UACC62 cells at 10 uM after 48 hr by coulter counter analysis; details: UACC-62, 48 h, read-out: GI
SK-MEL-28 = test: Growth inhibition of Homo sapiens (human) SK-MEL-28 cells at 10 uM after 48 hr by coulter counter analysis; details: SK-MEL-28, 48 h, read-out: GI
TK-10 = test: Growth inhibition of Homo sapiens (human) TK10 cells at 10 uM after 48 hr by coulter counter analysis; details: TK-10, 48 h, read-out: GI
LOX IMVI = test: Growth inhibition of Homo sapiens (human) LOXIMVI cells at 10 uM after 48 hr by coulter counter analysis; details: read-out: GI
RXF 393 = test: Growth inhibition of Homo sapiens (human) RXF393 cells at 10 uM after 48 hr by coulter counter analysis; details: RXF 393, 48 h, read-out: GI
ACHN = test: Growth inhibition of Homo sapiens (human) ACHN cells at 10 uM after 48 hr by coulter counter analysis; details: read-out: GI
786-0 = test: Growth inhibition of Homo sapiens (human) 786-0 cells at 10 uM after 48 hr by coulter counter analysis; details: 786-0, 48 h, read-out: GI
MOLT-4 = test: Growth inhibition of Homo sapiens (human) MOLT4 cells at 10 uM after 48 hr by coulter counter analysis; details: MOLT-4, 48 h, read-out: GI
SF-539 = test: Growth inhibition of Homo sapiens (human) SF539 cells at 10 uM after 48 hr by coulter counter analysis; details: SF-539, 48 h, read-out: GI
HCC 2998 = test: Growth inhibition of Homo sapiens (human) HCC2998 cells at 10 uM after 48 hr by coulter counter analysis; details: HCC 2998, 48 h, read-out: GI
NCI-H23 = test: Growth inhibition of Homo sapiens (human) NCI-H23 cells at 10 uM after 48 hr by coulter counter analysis; details: NCI-H23, 48 h, read-out: GI
NCI-H460 = test: Growth inhibition of Homo sapiens (human) NCI-H460 cells at 10 uM after 48 hr by coulter counter analysis; details: NCI-H460, 48 h, read-out: GI
HL-60(TB) = test: Growth inhibition of Homo sapiens (human) HL-60(TB) cells at 10 uM after 48 hr by coulter counter analysis; details: HL-60, 48 h, read-out: GI
OVCAR-8 = test: Growth inhibition of Homo sapiens (human) OVCAR8 cells at 10 uM after 48 hr by coulter counter analysis; details: OVCAR-8, 48 h, read-out: GI
OVCAR-3 = test: Growth inhibition of Homo sapiens (human) OVCAR3 cells at 10 uM after 48 hr by coulter counter analysis; details: OVCAR-3, 48 h, read-out: GI
MDA-MB-231 = test: Growth inhibition of Homo sapiens (human) MDA-MB-231/ATCC cells at 10 uM after 48 hr by coulter counter analysis; details: MDA-MB-231, 48 h, read-out: GI
BT-549 = test: Growth inhibition of Homo sapiens (human) BT549 cells at 10 uM after 48 hr by coulter counter analysis; details: BT-549, 48 h, read-out: GI
A549 = test: Growth inhibition of Homo sapiens (human) A549/ATCC cells at 10 uM after 48 hr by coulter counter analysis; details: A549, 48 h, read-out: GI
UO-31 = test: Growth inhibition of Homo sapiens (human) UO31 cells at 10 uM after 48 hr by coulter counter analysis; details: UO-31, 48 h, read-out: GI
SN12C = test: Growth inhibition of Homo sapiens (human) SN12C cells at 10 uM after 48 hr by coulter counter analysis; details: read-out: GI

SMILES: O=C1c2nccnc2C(=O)N1c1c(Cl)cc(Cl)cc1Cl
- inhibition of growth at 10 µM (SF-268): 7.64%
- inhibition of growth at 10 µM (UACC-62): 1.42%
- inhibition of growth at 10 µM (SK-MEL-28): -3.36%
- inhibition of growth at 10 µM (TK-10): -4.45%
- inhibition of growth at 10 µM (LOX IMVI): -0.26%
- inhibition of growth at 10 µM (RXF 393): -25.2%
- inhibition of growth at 10 µM (ACHN): -0.27%
- inhibition of growth at 10 µM (786-0): 2.39%
- inhibition of growth at 10 µM (MOLT-4): 1.21%
- inhibition of growth at 10 µM (SF-539): 8.66%
- inhibition of growth at 10 µM (HCC 2998): -4.24%
- inhibition of growth at 10 µM (NCI-H23): 0.61%
- inhibition of growth at 10 µM (NCI-H460): -7.91%
- inhibition of growth at 10 µM (HL-60(TB)): 1.42%
- inhibition of growth at 10 µM (OVCAR-8): 11%
- inhibition of growth at 10 µM (OVCAR-3): -15.4%
- inhibition of growth at 10 µM (MDA-MB-231): 7.23%
- inhibition of growth at 10 µM (BT-549): 4.48%
- inhibition of growth at 10 µM (A549): -11.7%
- inhibition of growth at 10 µM (UO-31): 72.9%
- inhibition of growth at 10 µM (SN12C): 22.7%
